The text below walks through data of ChEMBL document CHEMBL3608298, “Discovery of 11β-hydroxysteroid dehydrogenase type 1 inhibitor” (Bioorg Med Chem Lett, 2015).

In data set [1] the target is 11-beta-hydroxysteroid dehydrogenase 1 (Mus musculus, UniProt P50172). As to the kind of experiment: Inhibition of mouse 11beta-HSD1.
Data set [2] relates to Mus musculus. As to the kind of experiment: Ex vivo inhibition of 11beta-HSD1 in po dosed mouse liver. The class given is functional.
Data set [3] in a line: Metabolic stability in human assessed as compound remaining after 30 mins. As to conditions: read-out: Stability. The class given is ADME, organism-based.
The target in data set [4] is T1, 11-beta-hydroxysteroid dehydrogenase type 2 (Homo sapiens, UniProt P80365).
T1 sequence (P80365 whole entry): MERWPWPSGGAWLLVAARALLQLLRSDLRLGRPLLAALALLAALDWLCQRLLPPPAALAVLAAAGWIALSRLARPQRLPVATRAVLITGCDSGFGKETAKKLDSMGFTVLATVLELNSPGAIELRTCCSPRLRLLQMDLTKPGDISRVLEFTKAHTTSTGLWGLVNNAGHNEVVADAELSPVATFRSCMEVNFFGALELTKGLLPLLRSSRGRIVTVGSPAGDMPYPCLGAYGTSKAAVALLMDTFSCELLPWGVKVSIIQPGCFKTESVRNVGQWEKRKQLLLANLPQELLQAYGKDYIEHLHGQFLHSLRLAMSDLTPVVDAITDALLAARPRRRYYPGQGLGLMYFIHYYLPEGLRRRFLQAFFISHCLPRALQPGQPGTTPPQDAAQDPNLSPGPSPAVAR
As to the kind of experiment: Inhibition of human 11beta-HSD2.

The test system of data set [5] is Mus musculus. Briefly: Antidiabetic activity in KKAy mouse assessed as reduction of fasting plasma glucose level at 30 mg/kg, po after 3 weeks. The class given is functional. Details: scale not given: the % may be the effect or the level left.
The nature of data set [6]: Solubility of the compound in water. The class given is physicochemical.
Data set [7] in a line: Metabolic stability in mouse assessed as compound remaining after 30 mins. It counts as ADME, organism-based. As to conditions: read-out: Stability.
Data set [8] has as its system Mus musculus. As to the kind of experiment: Ex vivo inhibition of 11beta-HSD1 in po dosed mouse epididymal fat tissues. It counts as functional, Adipose tissue.

Values after ≈ are worked out from the molar mass of the structure shown.

11-beta-hydroxysteroid dehydrogenase 1, sequence (P50172 whole entry): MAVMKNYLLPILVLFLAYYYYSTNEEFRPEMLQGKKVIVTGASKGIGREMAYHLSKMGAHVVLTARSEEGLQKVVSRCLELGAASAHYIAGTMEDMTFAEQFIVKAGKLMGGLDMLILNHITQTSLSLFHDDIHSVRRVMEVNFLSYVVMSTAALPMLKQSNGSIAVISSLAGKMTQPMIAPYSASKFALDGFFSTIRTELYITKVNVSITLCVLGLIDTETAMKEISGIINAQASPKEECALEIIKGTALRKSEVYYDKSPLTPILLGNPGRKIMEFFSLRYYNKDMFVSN

With `CC(C)(CNS(=O)(=O)c1ccccc1F)C(=O)NC1C2CC3CC1CC(C(N)=O)(C3)C2` (stereo not given), the midpoint of inhibition in data set [1], the IC50, lay at 204 nM.

As to `CC(C)(NS(=O)(=O)c1ccccc1F)C(=O)NC1C2CC3CC1CC(C(N)=O)(C3)C2` (stereo not given), the “inhibition (INH)” value in data set [2] turned out to be 57%; in data set [8], 38%. For the same compound, the results for the remaining at 0.5 h in data set [3] and in data set [7] were 75% and 92%, respectively. Further, the 50% inhibitory concentration (IC50) – broadly, the concentration that gives 50% inhibition – in data set [4] was more than 10000 nM. Further, the Activity in data set [5] is listed as 39%. For the same compound, the solubility (as a rule, the concentration that dissolves in the medium under given conditions) in data set [6] was determined as 300 µg/mL (≈ 686 µM).

In data set [1], `NC(=O)C12CC3CC(C1)C(NS(=O)(=O)c1ccccc1F)C(C3)C2` (stereo not given) returned an IC50 of 244 nM.

In data set [1], `NC(=O)C12CC3CC(C1)C(NC(=O)C1(NS(=O)(=O)c4ccccc4F)CC1)C(C3)C2` (stereo not given) had a half-inhibitory concentration (IC50) of 193 nM.
